Values of other authors as cited in article PMC4282593 (Cancer chemotherapy and pharmacology, 2014).

Test system: recurrent/refractory NBs
Details: ref [23]

Compound: C[C@]12O[C@H](C[C@]1(O)CO)n1c3ccccc3c3c4c(c5c6ccccc6n2c5c31)CNC4=O [lestaurtinib]
- patients with durable responses (8/16 patients treated at a biologically effective dose): 50%
- side effects (Phase 1 clinical trial in NB patients): limited to mild, including reversible liver transaminase elevations
- duration of durable responses, on average (patients treated at a biologically effective dose): more than 10 months
